Results as given in patent publication US10875851B2, “Factor XIIa inhibitors” (Merck Sharp & Dohme Corp., priority 2016, dated 2020).

The molecules below were run against human Factor XIIa (Homo sapiens (Human), UniProt P00748) (assay: Factor XIIa Assay). Settings: purified human Factor XIIa 500 pM; substrate n-Acetyl-Lys-Pro-Arg-AFC 100 μM; pH 7.4; read-out: FXIIa IC50.
Assay type: biochemical
Method in brief: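 Purified human FXIIa at 500 pM final with 100 μM n-Acetyl-Lys-Pro-Arg-AFC in 50 mM HEPES, 150 mM NaCl, 5 mM CaCl2, 0.1% PEG 8000, pH 7.4, at room temperature or 37° C. Initial fluorogenic hydrolysis rates measured after enzyme–inhibitor equilibration; IC50 taken where Vi=Vo/2.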

Sequence of human Factor XIIa (P00748 373-615): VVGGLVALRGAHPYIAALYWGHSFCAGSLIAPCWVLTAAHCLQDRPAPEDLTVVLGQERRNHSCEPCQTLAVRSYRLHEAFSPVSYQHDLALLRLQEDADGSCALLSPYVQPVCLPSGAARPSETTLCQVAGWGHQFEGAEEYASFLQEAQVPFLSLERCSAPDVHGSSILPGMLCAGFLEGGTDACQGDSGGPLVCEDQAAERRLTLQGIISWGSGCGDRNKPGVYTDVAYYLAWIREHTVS

| Compound | IC50 |
| --- | --- |
| COc1cc(CNC(=O)[C@@H]2CN(C3=N[C@@H](C)[C@H](c4ccccc4)O3)CCN2C(=O)[C@@H](CCCCN2CCCCC2)NC2CCC(CN)CC2)ccc1C(N)=O (stereo partly drawn) [Example 165, (2S)-1-{N-[4-(aminomethyl)cyclohexyl]-6-piperidin-1-yl-D-norleucyl}-N-(4-carbamoyl-3-methoxybenzyl)-4-[(4S,5S)-4-methyl-5-phenyl-4,5-dihydro-1,3-oxazol-2-yl]piperazine-2-carboxamide] | 41.1 nM |
| C[C@H]1N=C(N2CCN(C(=O)[C@@H](CCCCN(C)C)NC3CCC4(CC3)CCN(Cc3ccccc3)C4)[C@H](C(=O)NCc3cccs3)C2)O[C@@H]1c1ccccc1 (stereo partly drawn) [Example 143, (2S)-1[N^2-(2-benzyl-2-azaspiro[4.5]dec-8-yl)-N^6,N^6-dimethyl-D-lysyl]-4-[(4R,5R)-4-methyl-5-phenyl-4,5-dihydro-1,3-oxazol-2-yl]-N-(thiophen-2-ylmethyl)piperazine-2-carboxamide] | 9.4 nM |
| CS(=O)(=O)N1CCC([C@@H](NC2CCCCC2)C(=O)N2CCN(C(=O)Oc3ccccc3Cl)C[C@H]2C(=O)NCc2cccs2)CC1 [Example 42, 2-chlorophenyl (3S)-4-{(2R)-2-(cyclohexylamino)-2-[1-(methylsulfonyl)piperidin-4-yl]acetyl}-3-[(thiophen-2-ylmethyl)carbamoyl]piperazine-1-carboxylate] | 6 nM |
| C[C@@H]1N=C(N2CCN(C(=O)[C@H](N)CCCCN3CCCCC3)[C@H](C(=O)NCc3cccs3)C2)O[C@H]1c1ccccc1 [Example 164, (2S)-4-[(4S,5S)-4-methyl-5-phenyl-4,5-dihydro-1,3-oxazol-2-yl]-1-(6-piperidin-1-yl-D-norleucyl)-N-(thiophen-2-ylmethyl)piperazine-2-carboxamide] | 22.8 nM |
| Cc1ccc(OC(=O)N2CCN(C(=O)[C@@H](CCCCN3CCCCC3)NC3CCC4(CC3)CCN(Cc3ccccc3)C4)[C@H](C(=O)NCc3cccs3)C2)c(Cl)c1C (stereo partly drawn) [Example 104, 2-chloro-3,4-dimethylphenyl (3S)-4-[N-(2-benzyl-2-azaspiro[4.5]dec-8-yl)-6-piperidin-1-yl-D-norleucyl]-3-[(thiophen-2-ylmethyl)carbamoyl]piperazine-1-carboxylate] | 0.2 nM |
| C[C@@H]1N=C(N2CCN(C(=O)[C@H](N)CCCCN3CCCCC3)[C@H](C(=O)NCc3cccc(Cl)c3)C2)O[C@H]1c1ccccc1 [Example 161, (2S)-N-(3-chlorobenzyl)-4-[(4S,5S)-4-methyl-5-phenyl-4,5-dihydro-1,3-oxazol-2-yl]-1-(6-piperidin-1-yl-D-norleucyl)piperazine-2-carboxamide] | 22 nM |
| CN(C)CCCC[C@@H](NC1CCC2(CC1)CCN(Cc1ccccc1)C2)C(=O)N1CCN(C(=O)Oc2ccccc2Cl)C[C@H]1C(=O)NCc1cccs1 (stereo partly drawn) [Example 78, 2-chlorophenyl (3S)-4-[N^2-(2-benzyl-2-azaspiro[4.5]dec-8-yl)-N^6,N^6-dimethyl-D-lysyl]-3-[(thiophen-2-ylmethyl)carbamoyl]piperazine-1-carboxylate] | 0.9 nM |
| C[C@H]1N=C(N2CCN(C(=O)[C@@H](CCCCNS(C)(=O)=O)NC3CCCCC3)[C@H](C(=O)NCc3cccs3)C2)O[C@H]1c1ccccc1 [Example 122, (2S)-1-[N^2-cyclohexyl-N^6-(methylsulfonyl)-D-lysyl]-4-[(4R,5S)-4-methyl-5-phenyl-4,5-dihydro-1,3-oxazol-2-yl]-N-(thiophen-2-ylmethyl)piperazine-2-carboxamide] | 13.5 nM |
| O=C(NCc1cccs1)[C@@H]1CN(C(=O)Oc2ccccc2Cl)CCN1C(=O)[C@H](NC1CCCCC1)C1CCN(S(=O)(=O)C2CC2)CC1 [Example 62, 2-chlorophenyl (3S)-4-{(2R)-2-(cyclohexylamino)-2-[1-(cyclopropylsulfonyl)piperidin-4-yl]acetyl}-3-[(thiophen-2-ylmethyl)carbamoyl]piperazine-1-carboxylate] | 1.7 nM |
